Experimental data: patent US20040039031A1, “Novel pharmaceutical compositions having an antidiabetic action, and process for their preparation” (priority 2000, published 2004)

Key:
NIDD STZ rats = assay: Streptozotocin-induced NIDD diabetic rats, eight-day oral treatment, plasma biological parameters; type: in vivo, male Wistar rats; details: for Glycaemia at D29 as percent of D21: values at D21 taken as 100%
Protocol: 40 male Wistar rats (Charles River, Saint Aubin les Elbeuf, France), with an average weight of 280 g, are used in this experiment. The animals are housed for one week in a standardised animal house, the following parameters of which are controlled: The forty rats are made diabetic by IP administration of 50 mg/kg of streptozotocin dissolved in physiological saline (a single administration). […] For each rat, 100 μl of blood are collected by venepuncture in a caudal vein, onto heparin, at time D0 (before the administration of STZ), at time D21 (21 days after STZ, before the treatments) and at D29 (after eight days of treatment). The samples are immediately centrifuged (10 minutes at 4000 rpm) and the plasma is separated from the blood cells. The samples are frozen until the time of determination of the biological parameters. After thawing the plasma samples, the above parameters are determined by enzymatic methods, using a COBAS automated machine (Roche). The glycaemia is measured by the hexokinase method; the cholesterol by the enzymatic final Randox point method; the triglycerides by the GPO-PAP method; the lactic acid by the lactic dehydrogenase method. The circulating insulin is measured by radioimmunoassay using CEA kits. The efficacy of the treatments is evaluated between […] by a t test adapted to paired series (for each rat, the value at D21 relative to D29 serves as the control).

NIDD rats, of STZ type = assay: Earlier study of glibenclamide 0.5 mg/kg daily in NIDD rats of STZ type; type: in vivo; details: daily dose of 0.5 mg/kg
[1] = metformin 30 mg/kg/day group, D0 (before STZ)
[2] = metformin 30 mg/kg/day group, D21 (21 days after STZ, before treatment)
[3] = metformin (hydrochloride) 30 mg/kg/day orally in two doses, D29 (after eight days of treatment)
[4] = glibenclamide 1 mg/kg/day group, D0 (before STZ)
[5] = glibenclamide 1 mg/kg/day group, D21 (21 days after STZ, before treatment)
[6] = glibenclamide 1 mg/kg/day orally in two doses, D29 (after eight days of treatment)
[7] = glibenclamide 2 mg/kg/day group, D0 (before STZ)
[8] = glibenclamide 2 mg/kg/day group, D21 (21 days after STZ, before treatment)
[9] = glibenclamide 2 mg/kg/day orally in two doses, D29 (after eight days of treatment)
[10] = glibenclamide higher dose 2 mg/kg/day, D29 vs D21
[11] = glibenclamide low dose 1 mg/kg/day, D29 vs D21

Which glycaemia at D29 (% of D21) (NIDD STZ rats; Metformin 30 mg/kg/day) does the source give for `CN(C)C(=N)N=C(N)N` [Metformin, metformin] here?
The glycaemia at D29 (% of D21) was 86%.

What about the “Glycaemia at D29 as percent of D21” value (NIDD STZ rats; Metformin 30 mg/kg/day) of the same compound?
Its value is 86.03 +/− 4.29%.

And the Cholesterol (NIDD STZ rats; [1])?
Its Cholesterol is 1.00 +/− 0.07 mM/l.

What about the Glycaemia (NIDD STZ rats; [1]) of the same compound?
The Glycaemia was 6.38 +/− 0.23 mM/l.

What about the Insulinaemia (NIDD STZ rats; [1]) of the same compound?
The Insulinaemia was 12.8 +/− 0.2 μU/ml.

What about the Lactates (NIDD STZ rats; [1]) of the same compound?
The Lactates was 2.47 +/− 0.15 mM/l.

What about the Triglycerides (NIDD STZ rats; [1]) of the same compound?
The Triglycerides was 0.96 +/− 0.12 mM/l.

What about the Cholesterol (NIDD STZ rats; [2]) of the same compound?
The Cholesterol was 1.57 +/− 0.08 mM/l.

And the Glycaemia (NIDD STZ rats; [2])?
The Glycaemia was 14.41 +/− 0.36 mM/l.

And the Lactates (NIDD STZ rats; [2])?
Its Lactates is 2.53 +/− 0.09 mM/l.

And the Triglycerides (NIDD STZ rats; [2])?
Its Triglycerides is 1.05 +/− 0.03 mM/l.

And the “Effect on lactates” value (NIDD STZ rats; metformin 30 mg/kg/day, eight days)?
The value was “tendency to increase”.

What about the Cholesterol (NIDD STZ rats; [3]) of the same compound?
Its Cholesterol is 1.48 +/− 0.06 mM/l.

What about the Glycaemia (NIDD STZ rats; [3]) of the same compound?
Its Glycaemia is “**12.35 +/− 0.49 mM/l”.

And the Insulinaemia (NIDD STZ rats; [3])?
The Insulinaemia was 17.3 +/− 0.7 μU/ml.

What about the Lactates (NIDD STZ rats; [3]) of the same compound?
Its Lactates is “*2.70 +/− 0.11 mM/l”.

And the Triglycerides (NIDD STZ rats; [3])?
Its Triglycerides is 0.96 +/− 0.05 mM/l.

What about the Decrease in glycaemia (NIDD STZ rats; metformin alone 30 mg/kg/day, D29 vs D21) of the same compound?
The Decrease in glycaemia was 13.7%.

Which “Glycaemia at D29 as percent of D21” value (NIDD STZ rats; Glibenclamide 2 mg/kg/day) does the source give for glibenclamide here?
The value was 93.49 +/− 1.15%.

And the Cholesterol (NIDD STZ rats; [4])?
The Cholesterol was 1.03 +/− 0.04 mM/l.

And the Glycaemia (NIDD STZ rats; [4])?
The Glycaemia was 6.39 +/− 0.17 mM/l.

What about the Insulinaemia (NIDD STZ rats; [4]) of the same compound?
The Insulinaemia was 12.8 +/− 0.8 μU/ml.

What about the Lactates (NIDD STZ rats; [4]) of the same compound?
Its Lactates is 2.19 +/− 0.07 mM/l.

What about the Triglycerides (NIDD STZ rats; [4]) of the same compound?
The Triglycerides was 0.87 +/− 0.05 mM/l.

And the Cholesterol (NIDD STZ rats; [5])?
Its Cholesterol is 1.65 +/− 0.08 mM/l.

And the Glycaemia (NIDD STZ rats; [5])?
The Glycaemia was 14.22 +/− 0.65 mM/l.

And the Insulinaemia (NIDD STZ rats; [5])?
The Insulinaemia was 16.7 +/− 0.8 μU/ml.

What about the Lactates (NIDD STZ rats; [5]) of the same compound?
The Lactates was 2.59 +/− 0.10 mM/l.

What about the Triglycerides (NIDD STZ rats; [5]) of the same compound?
The Triglycerides was 1.04 +/− 0.10 mM/l.

What about the Cholesterol (NIDD STZ rats; [6]) of the same compound?
The Cholesterol was 1.42 +/− 0.08 mM/l.

And the Glycaemia (NIDD STZ rats; [6])?
The Glycaemia was 14.66 +/− 0.47 mM/l.

What about the Insulinaemia (NIDD STZ rats; [6]) of the same compound?
Its Insulinaemia is “**1.92 +/− 0.8 μU/ml”.

What about the Lactates (NIDD STZ rats; [6]) of the same compound?
The Lactates was “**1.33 +/− 0.15 mM/l”.

And the Triglycerides (NIDD STZ rats; [6])?
The Triglycerides was 1.04 +/− 0.10 mM/l.

And the Cholesterol (NIDD STZ rats; [7])?
Its Cholesterol is 1.04 +/− 0.02 mM/l.

And the Glycaemia (NIDD STZ rats; [7])?
Its Glycaemia is 6.49 +/− 0.13 mM/l.

And the Insulinaemia (NIDD STZ rats; [7])?
The Insulinaemia was 12.7 +/− 0.6 μU/ml.

And the Lactates (NIDD STZ rats; [7])?
Its Lactates is 2.33 +/− 0.12 mM/l.

And the Triglycerides (NIDD STZ rats; [7])?
Its Triglycerides is 0.88 +/− 0.06 mM/l.

What about the Cholesterol (NIDD STZ rats; [8]) of the same compound?
The Cholesterol was 1.49 +/− 0.04 mM/l.

And the Glycaemia (NIDD STZ rats; [8])?
Its Glycaemia is 14.66 +/− 0.73 mM/l.

And the Insulinaemia (NIDD STZ rats; [8])?
Its Insulinaemia is 17.0 +/− 1.0 μU/ml.

What about the Lactates (NIDD STZ rats; [8]) of the same compound?
The Lactates was 2.67 +/− 0.17 mM/l.

And the Triglycerides (NIDD STZ rats; [8])?
Its Triglycerides is 1.01 +/− 0.05 mM/l.

And the Cholesterol (NIDD STZ rats; [9])?
Its Cholesterol is 1.52 +/− 0.06 mM/l.

What about the Glycaemia (NIDD STZ rats; [9]) of the same compound?
The Glycaemia was “**13.70 +/− 0.66 mM/l”.

And the Insulinaemia (NIDD STZ rats; [9])?
The Insulinaemia was “**21.0 +/− 1.4 μU/ml”.

And the Lactates (NIDD STZ rats; [9])?
Its Lactates is “**1.38 +/− 0.13 mM/l”.

What about the Triglycerides (NIDD STZ rats; [9]) of the same compound?
Its Triglycerides is 0.93 +/− 0.04 mM/l.

What about the Glycaemia (NIDD STZ rats; glibenclamide 2 mg/kg/day orally in two doses, D29 (after eight days of treatment), listed as glibenclamide) of the same compound?
Its Glycaemia is 13.70 +/− 0.66 mM/l.

What about the Decrease in glycaemia (NIDD STZ rats; glibenclamide alone 2 mg/kg/day, D29 vs D21) of the same compound?
The Decrease in glycaemia was 6.51%.

What about the “Effect on insulinaemia” value (NIDD STZ rats; [10]) of the same compound?
Its value is “still higher on average”.

What about the “Effect on lactate levels” value (NIDD STZ rats; [10]) of the same compound?
Its value is “significantly reduced”.

What about the “Effect on glycaemia” value (NIDD STZ rats; glibenclamide higher dose 2 mg/kg/day, D29 vs D21, paired t test) of the same compound?
The value was “significantly decreases”.

And the “Effect on glycaemia” value (NIDD STZ rats; [11])?
Its value is “does not modify”.

And the “Effect on insulinaemia” value (NIDD STZ rats; [11])?
Its value is “significant increase”.

And the “Effect on level of circulating lactates” value (NIDD STZ rats; [11])?
The value was “decrease”.

What about the Minimum active dose (NIDD STZ rats; orally in two doses, eight days, NIDD STZ rats) of the same compound?
The Minimum active dose was 2 mg/kg/day.

And the “Activity of daily dose” value (NIDD rats, of STZ type)?
Its value is “inactive”.
